For 18 compounds, Activity and EC50 results are on record in ChEMBL document CHEMBL5390283, “Discovery of PVD-06 as a Subtype-Selective and Efficient PTPN2 Degrader” (J Med Chem, 2023).

Assay [1] concerns the target T1, von Hippel-Lindau disease tumor suppressor/Tyrosine-protein phosphatase non-receptor type 2 (Homo sapiens, UniProt P17706+P40337). The experiment in a line: PROTAC activity at VHL/PTPN2 in human Jurkat cells assessed as induction of PTPN2 degradation at 10 uM by Western blot analysis relative to control. The format is cell-based. In general terms: Immunoblotting shows a protein as a band on a membrane.
Target sequence in this assay (P17706 whole entry, looked up): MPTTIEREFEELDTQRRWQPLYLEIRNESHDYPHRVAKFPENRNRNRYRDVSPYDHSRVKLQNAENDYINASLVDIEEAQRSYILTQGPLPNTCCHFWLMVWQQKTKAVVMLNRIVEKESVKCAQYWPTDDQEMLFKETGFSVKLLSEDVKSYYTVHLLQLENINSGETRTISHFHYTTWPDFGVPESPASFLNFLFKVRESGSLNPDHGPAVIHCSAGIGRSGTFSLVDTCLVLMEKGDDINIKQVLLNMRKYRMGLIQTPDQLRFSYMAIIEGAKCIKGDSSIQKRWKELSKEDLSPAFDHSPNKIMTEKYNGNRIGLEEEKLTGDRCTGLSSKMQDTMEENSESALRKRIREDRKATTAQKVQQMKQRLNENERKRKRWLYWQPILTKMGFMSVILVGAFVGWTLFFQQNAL
Target sequence in this assay (P40337 whole entry, looked up): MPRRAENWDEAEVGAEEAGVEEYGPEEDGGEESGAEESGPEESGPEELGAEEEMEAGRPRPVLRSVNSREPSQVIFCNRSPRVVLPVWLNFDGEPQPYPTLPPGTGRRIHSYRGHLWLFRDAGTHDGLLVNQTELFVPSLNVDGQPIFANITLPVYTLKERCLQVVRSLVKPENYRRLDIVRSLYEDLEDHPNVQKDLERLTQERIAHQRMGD

Assay [2] addresses T1, von Hippel-Lindau disease tumor suppressor/Tyrosine-protein phosphatase non-receptor type 2. The experiment in a line: PROTAC activity at VHL/PTPN2 in human Jurkat cells assessed as induction of PTPN2 degradation at 1 uM by Western blot analysis relative to control. In kind it is cell-based.
Target sequence in this assay (P17706 whole entry, looked up): as the sequence (P17706 whole entry, looked up) above
Target sequence in this assay (P40337 whole entry, looked up): as the sequence (P40337 whole entry, looked up) above
Assay [3] shares this target. The experiment in a line: PROTAC activity at VHL/PTPN2 in human Jurkat cells assessed as induction of PTPN2 degradation at 100 nM by Western blot analysis relative to control. The format is cell-based.
Target sequence in this assay (P17706 whole entry, looked up): as the sequence (P17706 whole entry, looked up) above
Target sequence in this assay (P40337 whole entry, looked up): as the sequence (P40337 whole entry, looked up) above
In assay [4] the target is Protein cereblon/Tyrosine-protein phosphatase non-receptor type 2 (Homo sapiens) (UniProt P17706+Q96SW2). The experiment in a line: PROTAC activity at CRBN/PTPN2 in human Jurkat cells assessed as induction of PTPN2 degradation at 0.01 to 10 uM by Western blot analysis. In kind it is cell-based. Particulars: dose 0.01-10 µM.
Assay [5] deals with von Hippel-Lindau disease tumor suppressor/Tyrosine-protein phosphatase non-receptor type 1 (Homo sapiens, UniProt P18031+P40337). The experiment in a line: PROTAC activity at VHL/PTP1B in human Jurkat cells assessed as induction of PTP1B degradation by Western blot analysis. The format is cell-based.
Assay [6] addresses T1, von Hippel-Lindau disease tumor suppressor/Tyrosine-protein phosphatase non-receptor type 2. Kind of assay: PROTAC activity at VHL/PTPN2 in human Jurkat cells assessed as induction of PTPN2 degradation by Western blot analysis. In kind it is cell-based.
Target sequence in this assay (P17706 whole entry): as the sequence (P17706 whole entry, looked up) above
Target sequence in this assay (P40337 whole entry): as the sequence (P40337 whole entry, looked up) above
The target is the same in assay [7]. The experiment in a line: PROTAC activity at VHL/PTPN2 in human Jurkat cells assessed as residual activity of PTPN2 level at 1 uM by Western blot analysis relative to control. In kind it is cell-based.
Target sequence in this assay (P17706 whole entry, looked up): as the sequence (P17706 whole entry, looked up) above
Target sequence in this assay (P40337 whole entry, looked up): as the sequence (P40337 whole entry, looked up) above
The subject of the next assay is Splenocyte. Kind of assay: Induction of cell proliferation in anti-CD3/CD28-stimulated mouse splenocytes at 0.625 to 10 uM incubated for 3 days by CFSE dye based flow cytometry. In kind it is functional. To be noted: dose 0.625-10 µM, time 3.0 day.

Calls of active or inactive are those of the source. The calls are words filed in the database; no cut-off is given here.

Chain of von Hippel-Lindau disease tumor suppressor/Tyrosine-protein phosphatase non-receptor type 1 (P18031 whole entry): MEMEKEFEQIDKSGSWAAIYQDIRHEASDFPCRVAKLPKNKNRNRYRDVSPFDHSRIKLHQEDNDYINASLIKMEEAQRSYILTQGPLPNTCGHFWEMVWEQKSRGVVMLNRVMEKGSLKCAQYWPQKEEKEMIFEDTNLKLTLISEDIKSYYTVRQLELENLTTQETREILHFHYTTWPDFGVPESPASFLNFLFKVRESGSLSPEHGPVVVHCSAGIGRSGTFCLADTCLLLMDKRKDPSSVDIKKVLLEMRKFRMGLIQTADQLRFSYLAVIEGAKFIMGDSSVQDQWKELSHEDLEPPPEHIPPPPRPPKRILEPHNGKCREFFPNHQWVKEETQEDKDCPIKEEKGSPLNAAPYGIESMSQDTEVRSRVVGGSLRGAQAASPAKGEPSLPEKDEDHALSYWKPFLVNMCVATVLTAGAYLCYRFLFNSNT
Chain of von Hippel-Lindau disease tumor suppressor/Tyrosine-protein phosphatase non-receptor type 1 (P40337 whole entry): as the sequence (P40337 whole entry, looked up) above
Chain of Protein cereblon/Tyrosine-protein phosphatase non-receptor type 2 (Homo sapiens) (P17706 whole entry, looked up): as the sequence (P17706 whole entry, looked up) above
Chain of Protein cereblon/Tyrosine-protein phosphatase non-receptor type 2 (Homo sapiens) (Q96SW2 whole entry, looked up): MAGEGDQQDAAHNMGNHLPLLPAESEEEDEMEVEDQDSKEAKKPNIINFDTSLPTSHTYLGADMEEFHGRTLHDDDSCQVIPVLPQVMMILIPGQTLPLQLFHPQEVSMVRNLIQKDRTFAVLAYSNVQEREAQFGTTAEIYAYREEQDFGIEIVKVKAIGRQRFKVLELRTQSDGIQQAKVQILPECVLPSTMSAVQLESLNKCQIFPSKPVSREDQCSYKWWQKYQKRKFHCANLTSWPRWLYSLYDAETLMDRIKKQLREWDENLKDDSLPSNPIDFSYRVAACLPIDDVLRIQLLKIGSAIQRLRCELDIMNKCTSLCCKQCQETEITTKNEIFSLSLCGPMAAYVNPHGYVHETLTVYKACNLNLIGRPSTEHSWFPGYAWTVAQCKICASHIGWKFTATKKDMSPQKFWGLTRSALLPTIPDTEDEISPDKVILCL

Consider `Cc1ncsc1-c1ccc([C@H](C)NC(=O)[C@@H]2C[C@@H](O)CN2C(=O)[C@@H](NC(=O)c2cn(CCCNC(=O)Cn3cc(-c4ccc5cc(O)c(N6CC(=O)NS6(=O)=O)c(F)c5c4)cn3)nn2)C(C)(C)C)cc1`, for which the Activity is 62% in assay [1], 2% in assay [2] and -2% in assay [3].

With `Cc1ncsc1-c1ccc([C@H](C)NC(=O)[C@@H]2C[C@@H](O)CN2C(=O)[C@@H](NC(=O)CCNC(=O)Cn2cc(-c3ccc4cc(O)c(N5CC(=O)NS5(=O)=O)c(F)c4c3)cn2)C(C)(C)C)cc1`, the figures for the Activity in assay [1], in assay [2] and in assay [3] were 96%, 57% and -1%, respectively.

With `Cn1c(=O)n(C2CCC(=O)NC2=O)c2ccc(C3CCN(C(=O)Cn4cc(-c5ccc6cc(O)c(N7CC(=O)NS7(=O)=O)c(F)c6c5)cn4)CC3)cc21` (centres undefined), in assay [4], the outcome was Active.

What is called EC50 is the concentration needed to bring the measured effect to its halfway point. For `Cc1ncsc1-c1ccc([C@H](C)NC(=O)[C@@H]2C[C@@H](O)CN2C(=O)[C@@H](NC(=O)CCCCCCNC(=O)Cn2cc(-c3ccc4cc(O)c(N5CC(=O)NS5(=O)=O)c(F)c4c3)cn2)C(C)(C)C)cc1`, the Activity in assay [1] turned out to be 99%; in assay [2] it was 84%; in assay [3], 40%. Moreover, the concentration giving a half-maximal response (EC50) in assay [5] came out at 142 nM; in assay [6] it was 94 nM.

As to `Cc1ncsc1-c1ccc([C@H](C)NC(=O)[C@@H]2C[C@@H](O)CN2C(=O)[C@@H](NC(=O)CNC2CCN(C(=O)Cn3cc(-c4ccc5cc(O)c(N6CC(=O)NS6(=O)=O)c(F)c5c4)cn3)CC2)C(C)(C)C)cc1`, the Activity in assay [1] was 99%; in assay [7], 20%; in assay [2], 72%; in assay [3] it was -17%.

Regarding `O=C(Cn1cc(-c2ccc3cc(O)c(N4CC(=O)NS4(=O)=O)c(F)c3c2)cn1)NCCCNc1cccc2c1C(=O)N(C1CCC(=O)NC1=O)C2=O` (centres undefined), the outcome in assay [4] was Active.

For the compound `Cc1ncsc1-c1ccc([C@H](C)NC(=O)[C@@H]2C[C@@H](O)CN2C(=O)[C@@H](NC(=O)CCNC2CCN(C(=O)Cn3cc(-c4ccc5cc(O)c(N6CC(=O)NS6(=O)=O)c(F)c5c4)cn3)CC2)C(C)(C)C)cc1`, the Activity in assay [1] worked out at 85%; in assay [2], 35%; in assay [3], 15%.

Consider `O=C(Cn1cc(-c2ccc3cc(O)c(N4CC(=O)NS4(=O)=O)c(F)c3c2)cn1)NCCCCCNc1cccc2c1C(=O)N(C1CCC(=O)NC1=O)C2=O` (centres undefined), for which the outcome in assay [4] was Active.

In the case of `Cc1ncsc1-c1ccc([C@H](C)NC(=O)[C@@H]2C[C@@H](O)CN2C(=O)[C@@H](NC(=O)CCCCCCCCNC(=O)Cn2cc(-c3ccc4cc(O)c(N5CC(=O)NS5(=O)=O)c(F)c4c3)cn2)C(C)(C)C)cc1`, the Activity was 94% in assay [1], 60% in assay [2] and 27% in assay [3].

Regarding `Cc1ncsc1-c1ccc([C@H](C)NC(=O)[C@@H]2C[C@@H](O)CN2C(=O)[C@@H](NC(=O)CCCNC(=O)Cn2cc(-c3ccc4cc(O)c(N5CC(=O)NS5(=O)=O)c(F)c4c3)cn2)C(C)(C)C)cc1`, the Activity in assay [1] stood at 98%; in assay [2], 81%; in assay [3], 26%.

`Cc1ncsc1-c1ccc([C@H](C)NC(=O)[C@@H]2C[C@@H](O)CN2C(=O)[C@@H](NC(=O)CCCCCCCNC(=O)Cn2cc(-c3ccc4cc(O)c(N5CC(=O)NS5(=O)=O)c(F)c4c3)cn2)C(C)(C)C)cc1`: the Activity amounted to 99% in assay [1], 84% in assay [2] and 37% in assay [3]. Also, the EC50 was determined as 758 nM in assay [5] and 77 nM in assay [6].

Take `Cc1ncsc1-c1ccc([C@H](C)NC(=O)[C@@H]2C[C@@H](O)CN2C(=O)[C@@H](NC(=O)CCCCNC(=O)Cn2cc(-c3ccc4cc(O)c(N5CC(=O)NS5(=O)=O)c(F)c4c3)cn2)C(C)(C)C)cc1`: the Activity in assay [1] came out at 92%; in assay [2], 77%; in assay [3], 29%.

Consider `Cn1c(=O)n(C2CCC(=O)NC2=O)c2ccc(C3CCN(CCn4cc(-c5ccc6cc(O)c(N7CC(=O)NS7(=O)=O)c(F)c6c5)cn4)CC3)cc21` (centres undefined), for which the outcome in assay [4] was Active.

Take `O=C(Cn1cc(-c2ccc3cc(O)c(N4CC(=O)NS4(=O)=O)c(F)c3c2)cn1)NCCCCNc1cccc2c1C(=O)N(C1CCC(=O)NC1=O)C2=O` (centres undefined): the result in assay [4] was Active.

Turning to `Cc1ncsc1-c1ccc([C@H](C)NC(=O)[C@@H]2C[C@@H](O)CN2C(=O)[C@@H](NC(=O)Cn2cc(-c3ccc4cc(O)c(N5CC(=O)NS5(=O)=O)c(F)c4c3)cn2)C(C)(C)C)cc1`, the Activity in assay [1] was -53%; in assay [2], -8%; in assay [3], -3%.

Turning to `Cc1ncsc1-c1ccc([C@H](C)NC(=O)[C@@H]2C[C@@H](O)CN2C(=O)[C@@H](NC(=O)CCCCCCCCCCNC(=O)Cn2cc(-c3ccc4cc(O)c(N5CC(=O)NS5(=O)=O)c(F)c4c3)cn2)C(C)(C)C)cc1`, the figures for the Activity in assay [1], in assay [2] and in assay [3] were 98%, 71% and 4%, respectively. The EC50 was determined as 2000 nM in assay [5] and 571 nM in assay [6].

With `Cc1ncsc1-c1ccc([C@H](C)NC(=O)[C@@H]2C[C@@H](Oc3ccccc3)CN2C(=O)[C@@H](NC(=O)CCCCCNC(=O)Cn2cc(-c3ccc4cc(O)c(N5CC(=O)NS5(=O)=O)c(F)c4c3)cn2)C(C)(C)C)cc1`, the result with Splenocyte was inactive.

For the compound `Cc1ncsc1-c1ccc([C@H](C)NC(=O)[C@@H]2C[C@@H](O)CN2C(=O)[C@@H](NC(=O)CNC(=O)Cn2cc(-c3ccc4cc(O)c(N5CC(=O)NS5(=O)=O)c(F)c4c3)cn2)C(C)(C)C)cc1`, the Activity is 91% in assay [1], 33% in assay [2] and -18% in assay [3].
